Experimental data from patent US11912794B2, “Modulation of structured polypeptide specificity” (BicycleRD Limited, priority 2011, dated 2024).
Like-named read-outs stand apart in the source and are kept apart here. Numbered stars: 1 amine (or outer) side, 2 acyl side, 3 side chain; on linkers, the order of the positions; unused ones are H or OH. Bridge positions count the residues as written; N and C are the ends. Square brackets hold non-standard residues; d marks the D form. Peptide text beside a SMILES is read from it. Pro(trans-4-Ph) = O=C(O)[C@@H]1C[C@@H](c2ccccc2)CN1; Pro(4R-Bn) = O=C(O)[C@@H]1C[C@@H](Cc2ccccc2)CN1; TBMB = c1c(C[*:1])cc(C[*:3])cc1C[*:2]; NMeR = CN[C@@H](CCCNC(=N)N)C(=O)O; 3Pal = N[C@@H](Cc1cccnc1)C(=O)O; 4Pal = N[C@@H](Cc1ccncc1)C(=O)O; Cha = N[C@@H](CC1CCCCC1)C(=O)O; Aze = O=C(O)[C@@H]1CCN1; Aib = CC(C)(N)C(=O)O; Sar = CNCC(=O)O

What was measured:
[1] = Plasma stability profiling method 1 (35% plasma, MALDI-TOF, qualitative); assay type: in vitro ADME, rat; conditions: 35% rat plasma, 37 deg C, method 1, comparative estimate
Description: Three methods were employed to assess the stability of bicycles (peptides conjugated to molecular scaffolds) in plasma.
A rapid plasma stability profiling assay was developed that employed mass spectrometric detection (MALDI-TOF, Voyager DE, Applied Biosystems) of the parent mass, until the time when the parent peptide mass was no longer observable. Specifically, 200 uM of peptide was incubated in the presence of 35% rat or human plasma (Sera labs, using citrate as anticoagulant) at 37 deg C., which was supplemented with 1×PBS (derived from a 10×PBS Stock, Sigma). At various time points (i.e. t=0, 3, 24 hrs, henceafter daily up to 10 days), 2 uL of sample was added to 18 uL of 30 mM ammonium bicarbonate in a 1:1 mixture of acetonitrile:H2O. Samples were frozen at −80 deg C. until the time of analysis. For mass spectrometric analysis that determines the approximate detection window of the peptide, the acetonitrile:H2O-diluted sample of a given time point was spotted directly (0.7 uL) onto the MALDI plate. Matrix (alpha-cyanocinnamic acid, Sigma, prepared as a saturated solution in 1:1 acetonitrile:water containing 0.1% trifluoroacetic acid) was layered over the sample (1 uL). At a similar laser intensity setting on the MALDI TOF, the time could then be determined until parent peptide was no longer detectable. It should be noted that this is a qualitative assay serves to detect relative changes in plasma stability.

human plasma Kallikrein = biological target: T1, human plasma Kallikrein (Homo sapiens, UniProt P03952); assay: Functional enzyme inhibition assay, fluorogenic substrate Z-PheArg-AMC; assay type: biochemical; conditions: for loss in potency / reduction in affinity compared to wildtype: vs Ac-06-34-18(TMB)-NH2
T1 construct: purchased Stratech, UK
Description: Peptides were dissolved as the TFA-salts in their powder form, and stock solutions were usually prepared in water. All solutions were centrifuged and filtered ([…] syringe filters) prior absorption measurement at 280 nm. […] For peptides containing non-natural amino acids with suspected chromophoric properties (i.e. NorHar, 4PhenylPro, 3PaI, 4PaI, Tic, 4GuanPhe, 4,4-BPAI, 3,3-DPA, 1NAI, 2NAI, 4BenzylPro, Ind) concentrations were determined by weighing the powder and dissolving the peptide in a defined quantity of water.

[2] = Ki (nM) (human kallikrein), Ac-06-34-18(TMB)-NH2 series

T1 sequence (P03952 20-638): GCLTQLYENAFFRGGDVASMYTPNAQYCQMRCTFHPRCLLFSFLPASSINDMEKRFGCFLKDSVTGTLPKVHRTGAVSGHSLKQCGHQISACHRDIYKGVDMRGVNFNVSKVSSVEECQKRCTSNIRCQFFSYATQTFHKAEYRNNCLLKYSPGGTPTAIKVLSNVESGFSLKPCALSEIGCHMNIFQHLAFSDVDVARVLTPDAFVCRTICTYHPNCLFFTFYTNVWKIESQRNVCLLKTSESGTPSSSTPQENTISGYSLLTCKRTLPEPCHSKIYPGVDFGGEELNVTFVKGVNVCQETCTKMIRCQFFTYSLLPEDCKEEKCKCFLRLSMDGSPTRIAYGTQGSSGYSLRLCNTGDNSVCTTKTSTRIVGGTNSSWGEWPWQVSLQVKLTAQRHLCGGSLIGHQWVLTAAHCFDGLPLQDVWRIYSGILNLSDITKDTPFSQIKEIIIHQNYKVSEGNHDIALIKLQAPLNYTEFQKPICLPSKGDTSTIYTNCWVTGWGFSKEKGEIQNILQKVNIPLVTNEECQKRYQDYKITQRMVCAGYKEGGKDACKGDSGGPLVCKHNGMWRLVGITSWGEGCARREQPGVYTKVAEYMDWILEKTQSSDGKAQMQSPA

With `CC(=O)N[C@H]1CSCc2cc3cc(c2)CSC[C@H](NC(=O)[C@H](CCCNC(=N)N)NC(=O)[C@H](C)NC(=O)[C@@H]2C[C@@H](Cc4ccccc4)CN2C(=O)[C@H](Cc2c[nH]c4ccccc24)NC(=O)[C@H](CO)NC1=O)C(=O)N[C@@H](CC(C)C)C(=O)N[C@@H](Cc1c[nH]cn1)C(=O)N[C@@H](CCC(N)=O)C(=O)N[C@@H](CC(=O)O)C(=O)N[C@@H](CC(C)C)C(=O)N[C@H](C(N)=O)CSC3` [Ac-(06-34-18) 4Benzyl Pro3] (Ac-CSW[Pro(4R-Bn)]ARCLHQDLC-NH2; linker 1-7-13 via TBMB) the “Observable in rat plasma, for days” value [1] was 2 days and the Ki (human plasma Kallikrein; [2]) was 191 nM.

With `CC(=O)N[C@H]1CSCc2cc3cc(c2)CSC[C@H](NC(=O)[C@H](CCCNC(=N)N)NC(=O)[C@H](C)NC(=O)[C@@H]2C[C@@H](c4ccccc4)CN2C(=O)[C@H](Cc2c[nH]c4ccccc24)NC(=O)[C@H](CO)NC1=O)C(=O)N[C@@H](CC(C)C)C(=O)N[C@@H](Cc1c[nH]cn1)C(=O)N[C@@H](CCC(N)=O)C(=O)N[C@@H](CC(=O)O)C(=O)N[C@@H](CC(C)C)C(=O)N[C@H](C(N)=O)CSC3` [Ac-(06-34-18) 4Phenyl Pro3] (Ac-CSW[Pro(trans-4-Ph)]ARCLHQDLC-NH2; linker 1-7-13 via TBMB) the “Observable in rat plasma, for days” value [1] was 2 days and the Ki (human plasma Kallikrein; [2]) was 0.58 nM.

With `CC(=O)N[C@H]1CSCc2cc3cc(c2)CSC[C@H](NC(=O)[C@H](CCCNC(=N)N)NC(=O)C(C)(C)NC(=O)[C@@H]2CCCN2C(=O)[C@H](Cc2c[nH]c4ccccc24)NC(=O)[C@H](CO)NC1=O)C(=O)N[C@@H](CC(C)C)C(=O)N[C@@H](Cc1c[nH]cn1)C(=O)N[C@@H](CCC(N)=O)C(=O)N[C@@H](CC(=O)O)C(=O)N[C@@H](CC(C)C)C(=O)N[C@H](C(N)=O)CSC3` [Ac-(06-34-18) Aib4] (Ac-CSWP[Aib]RCLHQDLC-NH2; linker 1-7-13 via TBMB) the “Observable in rat plasma, for days” value [1] was 7 days and the Ki (human plasma Kallikrein; [2]) was 289 nM.

For `CC(=O)N[C@H]1CSCc2cc3cc(c2)CSC[C@H](NC(=O)[C@@H](CCCNC(=N)N)NC(=O)[C@H](C)NC(=O)[C@@H]2CCCN2C(=O)[C@H](Cc2c[nH]c4ccccc24)NC(=O)[C@H](CO)NC1=O)C(=O)N[C@@H](CC(C)C)C(=O)N[C@@H](Cc1c[nH]cn1)C(=O)N[C@@H](CCC(N)=O)C(=O)N[C@@H](CC(=O)O)C(=O)N[C@@H](CC(C)C)C(=O)N[C@H](C(N)=O)CSC3` [Ac-(06-34-18) D-Arg5], the “loss in potency / reduction in affinity compared to wildtype” value (“loss in potency / reduction in affinity” for short) (human plasma Kallikrein) was 300 fold.

In the case of `CC(=O)N[C@H]1CSCc2cc3cc(c2)CSC[C@H](NC(=O)[C@H](CCCNC(=N)N)N(C)C(=O)[C@H](Cc2ccc(O)cc2)NC(=O)[C@@H]2CCN2C(=O)[C@H](Cc2ccccc2)NC(=O)[C@H](CO)NC1=O)C(=O)N[C@@H](CC(C)C)C(=O)N[C@@H](Cc1c[nH]cn1)C(=O)N[C@@H](CCC(N)=O)C(=O)N[C@@H](CC(=O)O)C(=O)N[C@@H](CC(C)C)C(=O)N[C@H](C(N)=O)CSC3` [Ac-(06-34-18) Phe2 Aze3Tyr4 NMeArg5] (Ac-CSF[Aze]Y[NMeR]CLHQDLC-NH2; linker 1-7-13 via TBMB), the Ki (human plasma Kallikrein; Ac-06-34-18(TMB)-NH2 series, read-out: Ki (nM) (human kallikrein)) is reported as < 1 nM.

With `CC(C)C[C@@H]1NC(=O)[C@H](CC(=O)O)NC(=O)[C@H](CCC(N)=O)NC(=O)[C@H](Cc2c[nH]cn2)NC(=O)[C@H](C)NC(=O)[C@@H]2CSCc3cc(cc(c3)CSC[C@@H](C(=O)N[C@@H](C)C(N)=O)NC1=O)CSC[C@H](NC(=O)[C@H](C)N)C(=O)N[C@@H](C)C(=O)N[C@@H](Cc1c[nH]c3ccccc13)C(=O)N1CCC[C@H]1C(=O)N[C@@H](C)C(=O)N[C@@H](CCCNC(=N)N)C(=O)N2` [06-34-03 - Ala1,6] (H-ACAWPARCAHQDLCA-NH2; linker 2-8-14 via TBMB; N-terminus and C-terminus assumed) the “potency against human plasma Kallikrein compared to parent” value (human plasma Kallikrein) was “retained full potency”.

With `CC(C)C[C@@H]1NC(=O)[C@H](CC(=O)O)NC(=O)[C@H](CCC(N)=O)NC(=O)[C@H](Cc2c[nH]cn2)NC(=O)CN(C)C(=O)[C@@H]2CSCc3cc(cc(c3)CSC[C@H](NC(=O)[C@H](C)N)C(=O)N(C)CC(=O)N[C@@H](Cc3c[nH]c4ccccc34)C(=O)N3CCC[C@H]3C(=O)N[C@@H](C)C(=O)N[C@@H](CCCNC(=N)N)C(=O)N2)CSC[C@@H](C(=O)N[C@@H](C)C(N)=O)NC1=O` [06-34-03 - N-MeGly1,6, AC N-MeGWPARCN-MeGHQDLCA] (H-AC[Sar]WPARC[Sar]HQDLCA-NH2; linker 2-8-14 via TBMB; N-terminus and C-terminus assumed) the “potency against human plasma Kallikrein compared to parent” value (human plasma Kallikrein) was “reduction in potency”.

In the case of `CC(=O)N[C@H]1CSCc2cc3cc(c2)CSC[C@H](NC(=O)[C@H](CCCNC(=N)N)NC(=O)[C@@H](C)NC(=O)[C@@H]2CCCN2C(=O)[C@H](Cc2c[nH]c4ccccc24)NC(=O)[C@H](CO)NC1=O)C(=O)N[C@@H](CC(C)C)C(=O)N[C@@H](Cc1c[nH]cn1)C(=O)N[C@@H](CCC(N)=O)C(=O)N[C@@H](CC(=O)O)C(=O)N[C@@H](CC(C)C)C(=O)N[C@H](C(N)=O)CSC3` [Ac-(06-34-18) D-Ala4], the “loss in potency / reduction in affinity” value (human plasma Kallikrein) is reported as 7000 fold.

With `CC(=O)N[C@H]1CSCc2cc3cc(c2)CSC[C@H](NC(=O)[C@H](CCCNC(=N)N)NC(=O)[C@H](Cc2ccc(O)cc2)NC(=O)[C@@H]2CCCN2C(=O)[C@H](Cc2ccncc2)NC(=O)[C@H](CO)NC1=O)C(=O)N[C@@H](CC(C)C)C(=O)N[C@@H](Cc1c[nH]cn1)C(=O)N[C@@H](CCC(N)=O)C(=O)N[C@@H](CC(=O)O)C(=O)N[C@@H](CC(C)C)C(=O)N[C@H](C(N)=O)CSC3` [Ac-(06-34-18) 4Pal2 Tyr4] (Ac-CS[4Pal]PYRCLHQDLC-NH2; linker 1-7-13 via TBMB) the Ki (human plasma Kallikrein; [2]) was 3.56 nM.

`CC(C)C[C@@H]1NC(=O)[C@H](CC(=O)O)NC(=O)[C@H](CCC(N)=O)NC(=O)[C@H](Cc2c[nH]cn2)NC(=O)[C@H]([C@@H](C)O)NC(=O)[C@@H]2CSCc3cc(cc(c3)CSC[C@@H](C(=O)N[C@@H](C)C(N)=O)NC1=O)CSC[C@H](NC(=O)[C@H](C)N)C(=O)N[C@@H](CCCNC(=N)N)C(=O)N[C@@H](Cc1c[nH]c3ccccc13)C(=O)N1CCC[C@H]1C(=O)N[C@@H](C)C(=O)N[C@@H](CCCNC(=N)N)C(=O)N2` [Peptide 06-34-02] (H-ACRWPARCTHQDLCA-NH2; linker 2-8-14 via TBMB) gave an IC50 (human plasma Kallikrein) of 0.16 nM.

Work on `CC(=O)N[C@H]1CSCc2cc3cc(c2)CSC[C@H](NC(=O)[C@H](CCCNC(=N)N)NC(=O)[C@H](Cc2ccncc2)NC(=O)[C@@H]2CCCN2C(=O)[C@H](Cc2ccccc2)NC(=O)[C@H](CO)NC1=O)C(=O)N[C@@H](CC(C)C)C(=O)N[C@@H](Cc1c[nH]cn1)C(=O)N[C@@H](CCC(N)=O)C(=O)N[C@@H](CC(=O)O)C(=O)N[C@@H](CC(C)C)C(=O)N[C@H](C(N)=O)CSC3` [Ac-(06-34-18) Phe2 4Pal4] (Ac-CSFP[4Pal]RCLHQDLC-NH2; linker 1-7-13 via TBMB) yielded a Ki (human plasma Kallikrein; [2]) of 2.2 nM.

With `CC(=O)N[C@H]1CSCc2cc3cc(c2)CSC[C@H](NC(=O)[C@H](Cc2ccc(NC(=N)N)cc2)NC(=O)[C@H](C)NC(=O)[C@@H]2CCCN2C(=O)[C@H](Cc2c[nH]c4ccccc24)NC(=O)[C@H](CO)NC1=O)C(=O)N[C@@H](CC(C)C)C(=O)N[C@@H](Cc1c[nH]cn1)C(=O)N[C@@H](CCC(N)=O)C(=O)N[C@@H](CC(=O)O)C(=O)N[C@@H](CC(C)C)C(=O)N[C@H](C(N)=O)CSC3` [Ac-(06-34-18) 4GuanPhe5] the “loss in potency / reduction in affinity” value (human plasma Kallikrein) was 2 fold.

Work on `CC(=O)N[C@H]1CSCc2cc3cc(c2)CSC[C@H](NC(=O)[C@H](CCCNC(=N)N)NC(=O)[C@H](Cc2ccc(O)cc2)NC(=O)[C@@H]2CCCN2C(=O)[C@H](Cc2cccnc2)NC(=O)[C@H](CO)NC1=O)C(=O)N[C@@H](CC(C)C)C(=O)N[C@@H](Cc1c[nH]cn1)C(=O)N[C@@H](CCC(N)=O)C(=O)N[C@@H](CC(=O)O)C(=O)N[C@@H](CC(C)C)C(=O)N[C@H](C(N)=O)CSC3` [Ac-(06-34-18) 3Pal2 Tyr4] (Ac-CS[3Pal]PYRCLHQDLC-NH2; linker 1-7-13 via TBMB) yielded a Ki (human plasma Kallikrein; Ki, text b293, unit inferred) of 0.91 nM.

With `CC(=O)N[C@H]1CSCc2cc3cc(c2)CSC[C@H](NC(=O)[C@H](CCCNC(=N)N)NC(=O)[C@H](C)NC(=O)[C@@H]2CCCN2C(=O)[C@@H](Cc2c[nH]c4ccccc24)NC(=O)[C@H](CO)NC1=O)C(=O)N[C@@H](CC(C)C)C(=O)N[C@@H](Cc1c[nH]cn1)C(=O)N[C@@H](CCC(N)=O)C(=O)N[C@@H](CC(=O)O)C(=O)N[C@@H](CC(C)C)C(=O)N[C@H](C(N)=O)CSC3` [Ac-(06-34-18) D-Trp2] the “loss in potency / reduction in affinity” value (human plasma Kallikrein) was 45000 fold.

Molecule `CC(=O)N[C@H]1CSCc2cc3cc(c2)CSC[C@H](NC(=O)[C@H](CCCNC(=N)N)NC(=O)[C@H](CC2CCCCC2)NC(=O)[C@@H]2CCCN2C(=O)[C@H](Cc2ccccc2)NC(=O)[C@H](CO)NC1=O)C(=O)N[C@@H](CC(C)C)C(=O)N[C@@H](Cc1c[nH]cn1)C(=O)N[C@@H](CCC(N)=O)C(=O)N[C@@H](CC(=O)O)C(=O)N[C@@H](CC(C)C)C(=O)N[C@H](C(N)=O)CSC3` [Ac-(06-34-18) Phe2 Cha4] (Ac-CSFP[Cha]RCLHQDLC-NH2; linker 1-7-13 via TBMB) has a Ki (human plasma Kallikrein; [2]) of 0.91 nM.
